Experimental findings from PMC8047011, “Enantiomers of 2-methylglutamate and 2-methylglutamine selectively impact mouse brain metabolism and behavior” (Scientific Reports, 2021) are described below.

In data set [1] the test system is C57Bl/6 mice. Description: Activity chamber open field. The class given is in vivo, mouse. Particulars: for Distance moved in the activity chamber vs vehicle: n = 6; for Distance moved in the activity chamber: chronic 10 mg/kg/day IP, after one week. From the text:
(§1) See Supplementary Methods for details. […]
Activity Chamber Open Field: Assessment was made in an Open Field Activity Arena (Med Associates Inc., St. Albans, VT. Model ENV-515) mounted with three planes of infrared detectors within a specially designed sound-attenuating chamber (Med Associates Inc., St.
Albans, VT. MED-017M-027). The arena was 43 cm (L) x 43 cm (W) x 30 cm (H) and the […]
in the periphery and center of the Arena. […]
without bedding, and in a sound isolating chamber. The activity chamber measures distance moved using infrared beams and without video recordings. […]
were used in the study. The animals were housed as described above.
The first dose was administered […]
described above for 30 min.

The subject of data set [2] is C57Bl/6 mice. Description: Chronic low dose exposure, mortality and body weight. The conditions noted are these: 10 mg/kg/day IP for a month. The method, then:
Behavioral tests were performed on 2 month-old, male, C57Bl/6 mice. We selected male mice because SBFNL historical controls are male mice. First, we assessed safety and tolerability of acute exposure to our novel chemicals through the following sequence of tests immediately following IP injection: maximum tolerated dose with novel cage observation at 100, 300, or 900 mg/kg, and then SHIRPA, activity chamber, and then hot plate latency using 100 or 30 mg/kg IP in different drug naïve mice. […] Animals were dosed daily from 3 to 5 PM after the conclusion of each behavioral testing session. […] See Supplementary Methods for details. […]
sound-attenuating chamber was 74 cm (L) x 60 cm (W) x 60 cm (H). The mice were placed in the corner of the testing arena and allowed to explore the arena for 60 min while being tracked automatically. Parameters measured include distance moved, velocity, rearing, and times spent in the periphery and center of the Arena. Periphery was defined as the zone 5 cm away from the arena wall. The Arena was cleaned with a 1% Virkon solution at the end of the trial.
The novel cage observation (vide supra) and activity chamber open field assessment are not […]
outcome. The novel cage protocol is conducted on the benchtop in a lighted room using a clean home cage, and tests habituation using video recording and scoring of behavioral performance.
Moreover, the novel cage allows the tester to visualize any other side effects such as seizure or repetitive jumping. The activity chamber is in an enclosed box, and the test is done in the dark, without bedding, and in a sound isolating chamber. The activity chamber measures distance moved using infrared beams and without video recordings.
In vivo animal studies; Chronic Efficacy Study using C57Bl/6J mice
Animal: Two month-old, naïve male C57Bl/6 mice from Jackson Laboratory (Stock ID# 000664) were used in the study. The animals were housed as described above.
Dosing: (R)-2MeGlu (10 mg/kg), (S)-2MeGlu (10 mg/kg), rac-2MeGln (10 mg/kg), and vehicle (PBS) were administered IP at 10 ml/kg dosing volume daily. […]

Data set [3] has as its system C57Bl/6 mice. Description: Fear conditioning. Particulars: chronic 10 mg/kg/day IP, week 4 of testing. The class given is in vivo, mouse.
Text: as §1
Fear Conditioning: Coulbourn Instruments (Holliston, MA, USA) fear conditioning system and FreezeFrame software were used for analysis. The experiment consisted of 1 day of training, 1 day of contextual testing, and 1 day of cued testing. The training and contextual testing chambers were identical with similar context. The walls were made of aluminum. The floor was […]
a gray metal grid through which the US was delivered, and the chambers used yellow color house light and were scented with mint extract to produce a unique smell in the chambers. The chambers were cleaned with a 10% simple green solution (Sunshine Makers, Inc.) between each mouse. The cued testing chambers were circular-shaped, made of plastic, used blue color house light, and were scented with vanilla extract to create a unique context different from training and contextual testing. This chamber was cleaned with 70% ethanol between each mouse. Both chambers were mounted within specially designed sound-attenuating chambers.
Each chamber had speakers mounted on the wall and included an exhaust fan and camera. On Day 1 training, mice were placed individually into a training chamber for 200 seconds. A tone (20 seconds, 80 dB, 2 kHz) was presented to the mouse, followed by an electrical shock (intensity 0.5 mA, 2 seconds) 18 seconds after the end of the tone (Misane et al. 2005, Burman 2014, Lugo et al. 2014). This procedure was repeated two times with a 60 second interval from the end of the shock to the next tone. The mouse was removed from the chamber and returned to the home cage 60 seconds after the last shock. On Day 2, the mice were placed back into the training chamber without any tone or shock for contextual memory testing for 15 minutes. On Day 3, the mice were placed into the cued testing chamber with just tones (20 seconds, 80dB, 2 kHz) presented 3 times with 80 second intervals after 200 seconds of habituation. Overall, the mice received the tone and shock pairings only on the training day. An overhead camera was used to record mice freezing behavior. The fear conditioning test was conducted after four weeks of exposure to compounds or vehicle.
We have shown when studying the cognitive enhancement in normal, young control mice, overtraining of the animals will lead to saturation of behavioral learning, making it very difficult to display pharmacological improvements in behavioral paradigms. We therefore chose less training trials per day and less number of training days in the Morris water maze to increase the likelihood of observing drug effects. Likewise, the fear conditioning task, we chose lower shock

As to `CC(N)(CCC(N)=O)C(=O)O` (racemic) [rac-2MeGln, rac-2-methylglutamine], in data set [1] (acute 30 mg/kg IP), the “Distance moved in the activity chamber vs vehicle” value (“Distance moved … vs vehicle” below) is “modest but significant reduction in distance moved only at 11 min post injection”. Moreover, the “Distance moved … vs vehicle” value in data set [1] (acute 100 mg/kg IP) is recorded as “not significantly different from vehicle at any time point”. For the same compound, in data set [1], the “Distance moved in the activity chamber” value is recorded as “no significant effect of treatment”. The “Body weight over the month” value in data set [2] is recorded as “no significant effect of treatment”. Besides, in data set [3], the “Fear conditioning Day 1, learning of the tone-shock association” value (from here on “Fear conditioning Day 1, learning”) is on record as “equivalent learning of the tone-shock association”; the “Fear conditioning Day 2, contextual recall vs vehicle” value is given as “no significant effect of treatments”; the “Fear conditioning Day 3, freezing during cued recall or tone presentation vs vehicle” value is listed as “no significant differences detected”.

Consider `C[C@@](N)(CCC(=O)O)C(=O)O` [(R)-2MeGlu, (R)-2-methylglutamic acid], for which, in data set [1] (acute 30 mg/kg IP), the “Distance moved … vs vehicle” value was “modest but significant reduction in distance moved only at 11 min post injection”. For the same compound, the “Distance moved … vs vehicle” value in data set [1] (acute 100 mg/kg IP) is “significantly reduced”. The “Distance moved in the activity chamber” value in data set [1] is “no significant effect of treatment”. Also, the “Body weight over the month” value in data set [2] is “no significant effect of treatment”. In data set [3], the “Fear conditioning Day 1, learning” value is listed as “equivalent learning of the tone-shock association”; the “Fear conditioning Day 2, contextual recall vs vehicle” value was “no significant effect of treatments”; the “Fear conditioning Day 3, freezing during cued recall or tone presentation vs vehicle” value is reported as “no significant differences detected”.

Take `C[C@](N)(CCC(=O)O)C(=O)O` [(S)-2MeGlu, (S)-2-methylglutamic acid]: the “Distance moved … vs vehicle” value in data set [1] (acute 30 mg/kg IP) was “not significantly different”. In addition, the “Distance moved … vs vehicle” value in data set [1] (acute 100 mg/kg IP) was “significantly reduced”. In data set [1], the “Distance moved in the activity chamber” value was “no significant effect of treatment”. Further, the “Body weight over the month” value in data set [2] is reported as “no significant effect of treatment”. Further, in data set [3], the “Fear conditioning Day 1, learning” value is listed as “equivalent learning of the tone-shock association”; the “Fear conditioning Day 2, contextual recall vs vehicle” value is reported as “no significant effect of treatments”; the “Fear conditioning Day 3, freezing during cued recall or tone presentation vs vehicle” value is “no significant differences detected”.
